Test results from ChEMBL document CHEMBL1201862, “PubChem BioAssay data set” (2004).
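Briefly, cells in 96-well plates were exposed to five compound concentrations for 48 h, and endpoints were estimated by linear interpolation. The concentration for 50% growth inhibition is given as GI50.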 Active and inactive are the calls of the source. Cut-off read from the data, not from the text of the source: active = GI50 up to about 1.1 µM and inactive = higher.

Experiments:
Test in all cases: NCI-60 cell line screen, 48 h
A498 = system: A498
A549 = system: A549
HL-60 = system: HL-60
IGROV-1 = system: IGROV-1
M14 = system: M14
MCF7 = system: MCF7
NCI-H226 = system: NCI-H226
NCI-H23 = system: NCI-H23
NCI/ADR-RES = system: NCI/ADR-RES
OVCAR-4 = system: OVCAR-4
OVCAR-5 = system: OVCAR-5
OVCAR-8 = system: OVCAR-8
RXF 393 = system: RXF 393
SK-OV-3 = system: SK-OV-3
T47D = system: T47D
UO-31 = system: UO-31
Hs-578T = system: Hs-578T
KM12 = system: KM12
SF-268 = system: SF-268

Measured: GI50

CC(=O)OCc1cc(=O)n2c([nH]c3ccccc32)c1C#N
inactive: A498 69.2 µM | A549 51.9 µM | HL-60 42.3 µM | IGROV-1 55 µM | M14 61.8 µM | MCF7 > 100 µM | NCI-H226 > 100 µM | NCI-H23 > 100 µM | NCI/ADR-RES > 100 µM | OVCAR-4 1.63 µM | OVCAR-5 > 100 µM | OVCAR-8 > 100 µM | RXF 393 59.3 µM | SK-OV-3 80.7 µM | T47D 78.5 µM | UO-31 78.3 µM

OC(c1ccsc1)c1cc2ccccc2s1 (stereo unspecified)
inactive: A549 > 10 µM | HL-60 > 10 µM | Hs-578T > 10 µM | IGROV-1 > 10 µM | KM12 > 10 µM | M14 > 10 µM | MCF7 > 10 µM | NCI-H226 > 10 µM | NCI-H23 > 10 µM | NCI/ADR-RES > 10 µM | OVCAR-4 > 10 µM | OVCAR-5 > 10 µM | OVCAR-8 > 10 µM | RXF 393 > 10 µM | SF-268 > 10 µM | SK-OV-3 > 10 µM | T47D > 10 µM | UO-31 > 10 µM

O=C(O)c1ccccc1SCc1cccc2c(=O)c3ccc(Cl)cc3oc12
inactive: A498 > 50 µM | A549 > 50 µM | HL-60 11 µM | IGROV-1 49.5 µM | KM12 > 50 µM | M14 > 50 µM | MCF7 > 50 µM | NCI-H226 > 50 µM | NCI-H23 35.3 µM | NCI/ADR-RES > 50 µM | OVCAR-4 41.5 µM | OVCAR-5 > 50 µM | OVCAR-8 > 50 µM | SK-OV-3 > 50 µM | T47D > 50 µM | UO-31 > 50 µM

CCOC(=O)c1cn(C)nc1N/C(C)=C\C(=O)c1ccccc1
inactive: A549 > 100 µM | HL-60 > 100 µM | Hs-578T > 100 µM | IGROV-1 > 100 µM | KM12 > 100 µM | M14 > 100 µM | MCF7 > 100 µM | NCI-H226 91.4 µM | NCI-H23 > 100 µM | NCI/ADR-RES > 100 µM | OVCAR-4 > 100 µM | OVCAR-5 > 100 µM | OVCAR-8 > 100 µM | SF-268 > 100 µM | SK-OV-3 > 100 µM | T47D > 100 µM | UO-31 > 100 µM

CCNC(=O)Nc1cccc(C)n1
inactive: A498 > 100 µM | A549 > 100 µM | HL-60 67.8 µM | Hs-578T > 100 µM | IGROV-1 > 100 µM | KM12 > 100 µM | M14 > 100 µM | MCF7 > 100 µM | NCI-H226 > 100 µM | NCI-H23 > 100 µM | OVCAR-4 > 100 µM | OVCAR-5 > 100 µM | OVCAR-8 > 100 µM | RXF 393 > 100 µM | SF-268 > 100 µM | SK-OV-3 > 100 µM | T47D > 100 µM | UO-31 > 100 µM

CN(C)C(=O)C(F)(F)C(c1ccccc1Br)C1C(=O)N(C)C(=O)N(C)C1=O (stereo unspecified)
inactive: A498 > 100 µM | A549 > 100 µM | KM12 > 100 µM | M14 > 100 µM | MCF7 > 100 µM | NCI-H226 > 100 µM | NCI-H23 > 100 µM | NCI/ADR-RES > 100 µM | OVCAR-4 > 100 µM | OVCAR-5 > 100 µM | OVCAR-8 > 100 µM | RXF 393 > 100 µM | SF-268 > 100 µM | SK-OV-3 > 100 µM | T47D > 100 µM | UO-31 > 100 µM

CC(=O)OC12c3ccccc3C(c3ccccc31)C1C(=O)N(c3ccccn3)C(=O)C12 (stereo unspecified)
inactive: A549 62.7 µM | HL-60 33.5 µM | Hs-578T 14.3 µM | IGROV-1 > 100 µM | KM12 50.1 µM | M14 51.8 µM | MCF7 > 100 µM | NCI-H226 > 100 µM | NCI-H23 > 100 µM | NCI/ADR-RES 55.2 µM | OVCAR-4 > 100 µM | OVCAR-5 > 100 µM | OVCAR-8 > 100 µM | RXF 393 > 100 µM | SF-268 87.3 µM | SK-OV-3 > 100 µM | T47D 53.3 µM | UO-31 15.8 µM

CC1CC/C(=C\c2ccc(N(C)C)cc2)C(=O)/C1=C/c1ccc(N(C)C)cc1 (stereo unspecified)
inactive: A498 > 100 µM | A549 > 100 µM | IGROV-1 > 100 µM | KM12 > 100 µM | M14 > 100 µM | MCF7 > 100 µM | NCI-H226 > 100 µM | NCI-H23 > 100 µM | NCI/ADR-RES > 100 µM | OVCAR-4 > 100 µM | OVCAR-5 > 100 µM | OVCAR-8 > 100 µM | SK-OV-3 > 100 µM | T47D > 100 µM | UO-31 > 100 µM

C=CCOC(=O)CC[N+]1=CCC(c2ccccc2)(c2ccccc2)O1
inactive: A498 > 100 µM | A549 > 100 µM | Hs-578T > 100 µM | IGROV-1 > 100 µM | KM12 > 100 µM | M14 > 100 µM | MCF7 > 100 µM | NCI-H226 > 100 µM | NCI-H23 > 100 µM | OVCAR-4 > 100 µM | OVCAR-5 > 100 µM | OVCAR-8 > 100 µM | RXF 393 > 100 µM | SF-268 > 100 µM | SK-OV-3 > 100 µM | T47D > 100 µM | UO-31 > 100 µM
